We go through eight molecules from US20260374756A1, “HETEROCYCLIC COMPOUNDS AS INHIBITORS OF MONOACYLGLYCEROL LIPASE (MAGL)” (Hoffmann-La Roche Inc., priority 2022, published 2026).

Each structure is given as a SMILES string.

For orientation: IC50 means the concentration that inhibits the measured activity by half. Lower therefore signals greater potency in that assay.

This assay addresses T1, hMAGL (Homo sapiens, UniProt Q99685).
T1 sequence (Q99685 1-303): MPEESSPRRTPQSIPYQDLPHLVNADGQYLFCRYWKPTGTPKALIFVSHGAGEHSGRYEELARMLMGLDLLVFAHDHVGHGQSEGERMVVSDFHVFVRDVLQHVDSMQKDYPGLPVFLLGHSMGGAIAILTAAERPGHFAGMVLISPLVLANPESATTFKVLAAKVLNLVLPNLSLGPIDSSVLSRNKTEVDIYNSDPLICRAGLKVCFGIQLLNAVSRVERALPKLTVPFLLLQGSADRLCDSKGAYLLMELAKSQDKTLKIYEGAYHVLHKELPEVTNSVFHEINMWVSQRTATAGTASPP
Kind of assay: 2-AG assay: MAGL inhibition, hydrolysis of 2-arachidonoylglycerol to arachidonic acid followed by mass spectrometry. Format: biochemical. In outline: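 MAGL preincubated with compound 15 min at RT in 50 mM Tris, 1 mM EDTA, 0.01% Tween-20, 2.5% DMSO; reaction started with 8 μM 2-AG (final), […], 30 min at RT. Quenched with acetonitrile containing d8-arachidonic acid; arachidonic acid quantified by RapidFire SPE-triple quad MS as arachidonic acid/d8 ratio.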
Regarding `O=C(N1CC2(CC(Cc3nc(C(F)(F)F)c[nH]3)C2)C1)N1CC2(CC(n3cnc(C4CC4)n3)C2)C1` [Example 351, [6-(3-cyclopropyl-1,2,4-triazol-1-yl)-2-azaspiro[3.3]heptan-2-yl]-[6-[[4-(trifluoromethyl)-1H-imidazol-2-yl]methyl]-2-azaspiro [3.3]heptan-2-yl]methanone], the IC50 is 0.77 nM. With `O=C(N1CC2(CC(Cc3cc(C4(C(F)(F)F)CC4)[nH]n3)C2)C1)N1CC2(CC(n3cnc(C(F)F)n3)C2)C1` [Example 352, [6-[3-(difluoromethyl)-1,2,4-triazol-1-yl]-2-azaspiro[3.3]heptan-2-yl]-[6-[[5-[1-(trifluoromethyl)cyclopropyl]-1H-pyrazol-3-yl]methyl]-2-azaspiro[3.3]heptan-2-yl]methanone] the figure was 0.6 nM. With `O=C(N1CC2(CC(Cn3cc(S(=O)(=O)C(F)(F)F)cn3)C2)C1)N1CC2(CC(n3cnc(C(F)(F)F)n3)C2)C1` [Example 353, [6-[3-(trifluoromethyl)-1,2,4-triazol-1-yl]-2-azaspiro[3.3]heptan-2-yl]-[6-[(4-triflylpyrazol-1-yl)methyl]-2-azaspiro[3.3]heptan-2-yl]methanone] the figure was 0.19 nM; with `O=C(N1CC2(CC(Cc3cc(C4(C(F)(F)F)CC4)[nH]n3)C2)C1)N1CC2(CC(n3cnc(C(F)(F)F)n3)C2)C1` [Example 354], 0.14 nM. The figure for `O=C(N1CC2(CC(Cn3nccc3C3CC3)C2)C1)N1CC2(CC(n3cnc(C4CC4)n3)C2)C1` [Example 355, [6-[(5-cyclopropylpyrazol-1-yl)methyl]-2-azaspiro[3.3]heptan-2-yl]-[6-(3-cyclopropyl-1,2,4-triazol-1-yl)-2-azaspiro[3.3]heptan-2-yl]methanone] is 0.11 nM. As to `O=C(N1CC2(CC(Cc3cnn4ccc(C(F)(F)F)nc34)C2)C1)N1CC2(CC(n3cnc(C4CC4)n3)C2)C1` [Example 358, [6-(3-cyclopropyl-1,2,4-triazol-1-yl)-2-azaspiro[3.3]heptan-2-yl]-[6-[[5-(trifluoromethyl)pyrazolo[1,5-a]pyrimidin-3-yl]methyl]-2-azaspiro[3.3]heptan-2-yl]methanone], the midpoint of inhibition, the IC50, lay at 0.09 nM. With `O=C(N1CC2(CC(Cc3cnn4c(C(F)(F)F)ccnc34)C2)C1)N1CC2(CC(n3cnc(C4CC4)n3)C2)C1` [Example 359, [6-(3-cyclopropyl-1,2,4-triazol-1-yl)-2-azaspiro[3.3]heptan-2-yl]-[6-[[7-(trifluoromethyl)pyrazolo[1,5-a]pyrimidin-3-yl]methyl]-2-azaspiro[3.3]heptan-2-yl]methanone] the figure was 0.13 nM; with `O=C(N1CC2(CC(Cc3cnn4cc(C(F)(F)F)cnc34)C2)C1)N1CC2(CC(n3cnc(C4CC4)n3)C2)C1` [Example 360, [6-(3-cyclopropyl-1,2,4-triazol-1-yl)-2-azaspiro[3.3]heptan-2-yl]-[6-[[6-(trifluoromethyl)pyrazolo[1,5-a]pyrimidin-3-yl]methyl]-2-azaspiro[3.3]heptan-2-yl]methanone], 0.3 nM.
